Where two headings read alike, the source gives them in different places.
Tests used:
[1] = tested on: Salmonella typhimurium TA1537; experiment: Ames test; details: CPL500036 5000µg/plate, n=3
PDE10A = PDE10A (Homo sapiens, UniProt Q9Y233); experiment: LabChip microfluidic mobility-shift assay, IC50 against PDE10A; type: biochemical; details: eight concentrations 0.1 nM to 300 nM, duplicate
Description: IC50 determination was assessed using LabChip® microfluid technology (PerkinElmer, Hopkinton, MA, United States) in line with the service-provider’s protocol. CPL500036 was tested at eight concentrations ranging from 0.1 nM to 300 nM. The assay was run on the EZ Reader™ II platform (Caliper Life Sciences, Hopkinton, MA, United States). After the incubation period, levels of the reaction products and remaining substrate were measured. Analyzed data were from duplicate measurement, and IC50 was determined using a variable slope with Prism 5 (GraphPad, San Diego, CA, United States).

human = details: ref Janowska et al., 2019, manuscript in preparation; cited from earlier work
[2] = tested on: Salmonella typhimurium TA1535; details: CPL500036 5000µg/plate, n=3
Wistar Han rats = experiment: Glucose tolerance test; type: in vivo; details: 0.3 mg/kg, 1 mg/kg, and 3 mg/kg, p.o., 2 h before glucose bolus, n = 8
Description: Thirty-two male Wistar Han rats (∼10 weeks; Tri-City Academic Laboratory Animal Centre-Research and Services Centre, Medical University of Gdansk) were fasted for 16 h before experimentation. Animals underwent gavage with CPL500036 (0.3 mg/kg, 1 mg/kg or 3 mg/kg) or vehicle 2 h before receiving a glucose bolus (2 g/kg, i.p.; MilliporeSigma). Olanzapine (10 mg/kg) was used as an active comparator and delivered (s.c.) 30 min before the glucose bolus. Blood samples from the tail vein were collected from each rat right before drug administration, just before glucose loading as well as 15 min, 30 min, 60 min, 120 min, and 180 min after glucose administration. The glucose concentration was measured using a glucometer (Accu-ChekGo, Roche Diagnostics, Mannheim, Germany).

[3] = target: T1, alpha 4/beta 2 nicotinic acetylcholine receptor, (neuronal) (Homo sapiens, UniProt P17787+P43681); experiment: SafetyScreen44 radioligand binding; details: agonist radioligand, read-out: % Inh (% inhibition of control specific binding)
T1 construct: purchased Eurofins Cerep (SafetyScreen44)
Description: (§1) The SafetyScreen44® assay was carried out by Eurofins (Poitiers, France) according to the service-provider’s protocol. CPL500036 (1 µM) was tested against a panel of […] potential off-targets proteins, including G protein-coupled receptors (GPCRs), transporters, ion channels, nuclear receptors kinases and other non-kinase enzymes, by use of a set of the binding assays.
(§2) Binding of CPL500036 was calculated as the percent binding inhibition of a radioactively labeled ligand specific for each target. Enzyme inhibition of CPL500036 was calculated as the percent inhibition of the activity of the control enzyme. “No interaction” was denoted if inhibition ≤ 25% of specific binding of the control. Determination of muscarinic acetylcholine receptor (M2) activity induced by CPL500036 (antagonism and agonism) was undertaken in human recombinant CHO cells by measurement of the intracellular cAMP level according to the service-provider’s protocol. IC50 (concentration causing a half-maximal inhibition of specific binding of the control) or EC50 (concentration causing a half-maximal response of specific binding of the control) and the Hill coefficient were determined by non-linear regression analysis of the competition curves generated with mean replicate values using Hill-equation curve fitting with software developed at Cerep (Celle-Lévescault, France).

[4] = target: T2, δ-type opioid receptor ẟ2 (Homo sapiens, UniProt P41143); experiment: SafetyScreen44 radioligand binding; details: agonist radioligand, read-out: % Inh (% inhibition of control specific binding)
T2 construct: purchased Eurofins Cerep (SafetyScreen44)
Description: as §1, §2

[5] = target: T3, histamine receptor type 2 (Homo sapiens, UniProt P25021); experiment: SafetyScreen44 radioligand binding; details: read-out: % Inh (% inhibition of control specific binding)
T3 construct: purchased Eurofins Cerep (SafetyScreen44)
Description: as §1, §2

κ-type opioid receptor = target: T4, κ-type opioid receptor (Rattus norvegicus, UniProt P34975); experiment: SafetyScreen44 radioligand binding; details: agonist radioligand, read-out: % Inh (% inhibition of control specific binding)
T4 construct: purchased Eurofins Cerep (SafetyScreen44)
Description: as §1, §2

serotonin receptor 2A = target: T5, serotonin receptor 2A (Homo sapiens, UniProt P28223); experiment: SafetyScreen44 radioligand binding; details: agonist radioligand, read-out: % Inh (% inhibition of control specific binding)
T5 construct: purchased Eurofins Cerep (SafetyScreen44)
Description: as §1, §2

[6] = target: T6, muscarinic acetylcholine receptor type 3 (Homo sapiens, UniProt P20309); experiment: SafetyScreen44 radioligand binding; details: read-out: % Inh (% inhibition of control specific binding)
T6 construct: purchased Eurofins Cerep (SafetyScreen44)
Description: as §1, §2

[7] = target: T7, M2 muscarinic (human) receptor (Homo sapiens, UniProt P08172); experiment: M2 functional assay, intracellular cAMP (HTRF) in CHO cells, agonist and antagonist mode; type: cell-based
T7 construct: host or cells: CHO-K1
Description: as §2
Supplementary fig. 1 Assesment of possible allosteric modulation in M2 muscarinic (human) receptor […]
by CPL500036 in CHO cells.
The study was perfomed by Eurofins Cerep (Poitiers, France) according to the service-provider’s protocol. […] Cells were treated for 10 min with CPL500036. cAMP was detected by use of HTRF ( Homogeneous Time Resolved […]

[8] = tested on: Salmonella typhimurium TA98; experiment: Ames test; details: CPL500036 5000µg/plate, n=3
[9] = Hepatocyte stability assay; type: in vitro ADME; details: data not shown, n = 6
psychosis animal models = tested on: psychosis animal models; design: method as in manuscript in preparation; details: ref manuscript in preparation; cited from earlier work
[10] = With metabolic activation (+S9 mix), 2AA 2µg/plate
[11] = Without metabolic activation (-S9 mix), 9AA 50µg/plate
[12] = Without metabolic activation (-S9 mix), SAZ 2µg/plate
[13] = Without metabolic activation (-S9 mix), NPD 4µg/plate

T7 sequence (P08172 whole entry): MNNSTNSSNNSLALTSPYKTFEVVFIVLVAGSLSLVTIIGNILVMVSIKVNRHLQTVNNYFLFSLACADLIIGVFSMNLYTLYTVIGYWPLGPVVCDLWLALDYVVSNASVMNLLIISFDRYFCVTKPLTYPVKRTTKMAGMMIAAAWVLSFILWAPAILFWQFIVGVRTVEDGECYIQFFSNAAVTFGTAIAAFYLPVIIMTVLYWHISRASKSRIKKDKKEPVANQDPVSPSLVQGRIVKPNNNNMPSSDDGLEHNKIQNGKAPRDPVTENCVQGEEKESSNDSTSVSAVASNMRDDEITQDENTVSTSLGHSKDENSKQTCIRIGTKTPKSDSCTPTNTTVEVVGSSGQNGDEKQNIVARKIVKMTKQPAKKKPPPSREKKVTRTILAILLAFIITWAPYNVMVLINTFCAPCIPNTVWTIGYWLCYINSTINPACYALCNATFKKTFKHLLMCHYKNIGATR
T4 sequence (P34975 whole entry): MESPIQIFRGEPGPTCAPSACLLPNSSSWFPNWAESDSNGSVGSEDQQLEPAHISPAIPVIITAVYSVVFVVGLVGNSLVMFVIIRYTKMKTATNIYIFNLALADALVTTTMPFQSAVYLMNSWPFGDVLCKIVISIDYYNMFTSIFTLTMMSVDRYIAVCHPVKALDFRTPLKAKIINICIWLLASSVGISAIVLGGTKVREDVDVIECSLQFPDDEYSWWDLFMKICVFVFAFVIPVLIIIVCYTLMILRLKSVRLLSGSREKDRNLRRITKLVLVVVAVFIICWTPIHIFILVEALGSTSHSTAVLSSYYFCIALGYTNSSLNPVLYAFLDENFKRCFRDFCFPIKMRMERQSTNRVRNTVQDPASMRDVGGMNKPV
T5 sequence (P28223 whole entry): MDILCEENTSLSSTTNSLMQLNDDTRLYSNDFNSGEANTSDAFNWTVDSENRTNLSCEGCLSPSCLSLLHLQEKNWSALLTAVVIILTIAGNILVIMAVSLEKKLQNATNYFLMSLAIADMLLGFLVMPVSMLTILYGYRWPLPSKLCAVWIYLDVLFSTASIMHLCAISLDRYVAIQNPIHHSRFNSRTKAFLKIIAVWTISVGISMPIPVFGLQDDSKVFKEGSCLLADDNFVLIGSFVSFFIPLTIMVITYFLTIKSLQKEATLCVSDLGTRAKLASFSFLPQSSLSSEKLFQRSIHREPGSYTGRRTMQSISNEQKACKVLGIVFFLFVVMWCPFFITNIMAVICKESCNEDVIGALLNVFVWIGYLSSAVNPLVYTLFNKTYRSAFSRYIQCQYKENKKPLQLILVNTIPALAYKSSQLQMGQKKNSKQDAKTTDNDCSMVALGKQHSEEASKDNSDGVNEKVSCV
T3 sequence (P25021 whole entry): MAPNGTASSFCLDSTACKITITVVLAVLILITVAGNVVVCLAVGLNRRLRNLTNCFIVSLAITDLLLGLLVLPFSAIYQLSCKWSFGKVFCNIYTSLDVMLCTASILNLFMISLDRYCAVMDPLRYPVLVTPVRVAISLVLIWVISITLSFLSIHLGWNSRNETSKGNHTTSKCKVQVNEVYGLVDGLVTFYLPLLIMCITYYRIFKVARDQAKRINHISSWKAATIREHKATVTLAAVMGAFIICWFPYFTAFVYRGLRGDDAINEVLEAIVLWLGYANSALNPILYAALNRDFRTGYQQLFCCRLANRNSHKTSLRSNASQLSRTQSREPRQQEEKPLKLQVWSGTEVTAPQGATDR
T1 sequence (P43681 29-627 limits assumed): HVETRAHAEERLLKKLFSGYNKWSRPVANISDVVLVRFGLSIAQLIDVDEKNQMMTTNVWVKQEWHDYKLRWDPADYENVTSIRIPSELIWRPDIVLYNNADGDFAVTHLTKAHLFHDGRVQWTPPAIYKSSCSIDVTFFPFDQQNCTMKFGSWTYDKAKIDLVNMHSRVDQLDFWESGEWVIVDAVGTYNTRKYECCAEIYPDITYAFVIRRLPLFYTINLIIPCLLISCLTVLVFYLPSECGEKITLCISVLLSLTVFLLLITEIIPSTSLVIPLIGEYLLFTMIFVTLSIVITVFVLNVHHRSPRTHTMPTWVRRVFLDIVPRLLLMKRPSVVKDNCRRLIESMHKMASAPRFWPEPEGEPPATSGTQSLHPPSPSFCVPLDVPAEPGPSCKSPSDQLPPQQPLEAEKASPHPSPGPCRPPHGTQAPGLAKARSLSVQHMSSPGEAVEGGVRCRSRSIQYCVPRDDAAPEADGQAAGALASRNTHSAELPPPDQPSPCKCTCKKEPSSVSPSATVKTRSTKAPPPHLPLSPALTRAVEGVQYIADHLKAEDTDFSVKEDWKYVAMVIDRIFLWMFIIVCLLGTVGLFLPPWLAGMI
T1 sequence (P17787 26-502): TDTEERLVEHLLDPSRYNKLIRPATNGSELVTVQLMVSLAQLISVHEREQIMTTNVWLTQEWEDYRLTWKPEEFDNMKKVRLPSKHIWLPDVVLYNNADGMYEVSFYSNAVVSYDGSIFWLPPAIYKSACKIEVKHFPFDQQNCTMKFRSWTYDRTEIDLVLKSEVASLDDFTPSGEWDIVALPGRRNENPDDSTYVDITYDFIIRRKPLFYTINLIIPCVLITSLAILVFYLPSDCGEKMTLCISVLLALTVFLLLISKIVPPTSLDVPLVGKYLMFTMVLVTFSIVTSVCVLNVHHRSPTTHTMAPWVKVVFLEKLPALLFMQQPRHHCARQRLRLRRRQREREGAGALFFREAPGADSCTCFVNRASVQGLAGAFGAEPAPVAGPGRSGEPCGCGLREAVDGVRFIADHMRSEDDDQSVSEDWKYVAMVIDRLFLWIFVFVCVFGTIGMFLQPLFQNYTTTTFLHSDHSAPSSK
T2 sequence (P41143 whole entry): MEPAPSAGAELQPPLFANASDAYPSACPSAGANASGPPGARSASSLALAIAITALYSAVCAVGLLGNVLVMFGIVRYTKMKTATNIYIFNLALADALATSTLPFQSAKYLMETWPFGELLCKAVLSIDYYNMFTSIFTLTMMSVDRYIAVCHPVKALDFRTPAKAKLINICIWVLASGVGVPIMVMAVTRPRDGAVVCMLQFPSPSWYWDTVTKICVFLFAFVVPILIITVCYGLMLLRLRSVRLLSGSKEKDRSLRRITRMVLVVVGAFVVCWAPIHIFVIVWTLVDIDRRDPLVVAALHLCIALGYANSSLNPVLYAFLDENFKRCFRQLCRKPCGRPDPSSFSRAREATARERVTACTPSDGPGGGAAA
PDE10A, sequence (Q9Y233 whole entry, species assumed): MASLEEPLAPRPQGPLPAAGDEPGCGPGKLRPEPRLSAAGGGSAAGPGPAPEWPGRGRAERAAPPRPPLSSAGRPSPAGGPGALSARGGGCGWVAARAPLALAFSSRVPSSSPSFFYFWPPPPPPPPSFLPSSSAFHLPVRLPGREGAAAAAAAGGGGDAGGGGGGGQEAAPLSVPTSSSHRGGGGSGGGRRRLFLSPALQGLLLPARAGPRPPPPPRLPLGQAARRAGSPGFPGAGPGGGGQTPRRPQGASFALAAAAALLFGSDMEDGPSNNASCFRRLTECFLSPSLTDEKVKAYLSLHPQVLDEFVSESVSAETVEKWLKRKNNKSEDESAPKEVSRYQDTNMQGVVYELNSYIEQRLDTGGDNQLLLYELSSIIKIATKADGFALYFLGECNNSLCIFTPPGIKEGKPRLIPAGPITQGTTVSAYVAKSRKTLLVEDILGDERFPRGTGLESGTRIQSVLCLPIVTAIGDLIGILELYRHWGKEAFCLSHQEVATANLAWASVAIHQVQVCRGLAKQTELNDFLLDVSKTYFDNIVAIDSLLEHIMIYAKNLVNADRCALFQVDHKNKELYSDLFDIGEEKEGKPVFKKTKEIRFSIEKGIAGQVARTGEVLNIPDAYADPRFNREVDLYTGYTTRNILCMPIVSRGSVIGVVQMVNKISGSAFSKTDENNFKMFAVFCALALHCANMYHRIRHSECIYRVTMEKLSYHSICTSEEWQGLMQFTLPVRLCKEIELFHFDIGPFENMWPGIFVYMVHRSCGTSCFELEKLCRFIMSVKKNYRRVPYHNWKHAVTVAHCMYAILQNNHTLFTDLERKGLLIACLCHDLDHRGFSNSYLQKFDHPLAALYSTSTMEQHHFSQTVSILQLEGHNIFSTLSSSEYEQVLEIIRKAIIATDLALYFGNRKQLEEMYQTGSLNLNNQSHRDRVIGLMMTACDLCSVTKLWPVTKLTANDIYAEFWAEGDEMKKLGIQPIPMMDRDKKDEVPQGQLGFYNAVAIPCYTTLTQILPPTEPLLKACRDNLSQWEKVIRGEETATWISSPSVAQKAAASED
T6 sequence (P20309 whole entry): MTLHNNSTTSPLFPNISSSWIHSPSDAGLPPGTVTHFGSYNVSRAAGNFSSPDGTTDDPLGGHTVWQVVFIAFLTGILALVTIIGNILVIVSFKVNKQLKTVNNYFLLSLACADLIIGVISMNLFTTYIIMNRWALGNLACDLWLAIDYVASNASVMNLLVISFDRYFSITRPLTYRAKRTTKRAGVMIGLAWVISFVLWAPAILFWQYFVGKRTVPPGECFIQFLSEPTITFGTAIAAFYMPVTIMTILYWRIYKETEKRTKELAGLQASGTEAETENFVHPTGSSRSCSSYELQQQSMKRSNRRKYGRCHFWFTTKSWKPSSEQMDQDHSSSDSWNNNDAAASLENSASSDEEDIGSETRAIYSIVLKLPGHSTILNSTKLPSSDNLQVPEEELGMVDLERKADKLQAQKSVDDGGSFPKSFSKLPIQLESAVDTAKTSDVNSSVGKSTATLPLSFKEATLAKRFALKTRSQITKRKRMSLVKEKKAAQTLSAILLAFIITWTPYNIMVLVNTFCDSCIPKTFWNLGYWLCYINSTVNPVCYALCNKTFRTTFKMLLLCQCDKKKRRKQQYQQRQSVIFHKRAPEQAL

Cc1ncc(C)n2nc(-c3ccn4cc(-c5ccccc5)nc4n3)nc12 [CPL500036, 7-[5,8-Dimethyl-(1,2,4)triazolo (1,5-a)pyrazin-2-yl]-2-phenylimidazo (1,2-a) pyrimidine]
Mutation rate [1, 10]: 0.69 | Revertants Mean±SD [1, 10]: 6.0±5.20 | Mutation rate [1, 11]: 0.71 | Revertants Mean±SD [1, 11]: 4.0±4.36 | IC50 (PDE10A): 0.001 µM | bioavailability in human (human): bioavailable in human | safety and tolerability in human (human): generally safe and well tolerated with no serious adverse effects | Mutation rate [2, 10]: 0.6 | Revertants Mean±SD [2, 10]: 8.3±5.13 | Mutation rate [2, 12]: 1.13 | Revertants Mean±SD [2, 12]: 12.0±5.57 | effect on the glucose level, glucose-tolerance test (Wistar Han rats): has no effect on the glucose level | inhibition at 1 µM [3]: -6.1% | inhibition at 1 µM [4]: 6.9% | inhibition at 1 µM [5]: 1.8% | inhibition at 1 µM (κ-type opioid receptor): 7.7% | inhibition at 1 µM (serotonin receptor 2A): -8.6% | inhibition at 1 µM [6]: 0.7% | IC50 [7]: 9.2 µM | agonist-like behavior ([7]; agonistic mode, in presence of methoctramine, CHO cells, cAMP): didn’t trigger any agonist-like behavior | Mutation rate [8, 10]: 0.92 | Revertants Mean±SD [8, 10]: 18.3±8.02 | Mutation rate [8, 13]: 0.74 | Revertants Mean±SD [8, 13]: 14.3±1.15 | active metabolites [9]: no active metabolites were identified | dose showing therapeutic activity (psychosis animal models): 0.1 mg/kg

From paper PMC9681820, “A PDE10A inhibitor CPL500036 is a novel agent modulating striatal function devoid of most neuroleptic side-effects” (Frontiers in Pharmacology, 2022)
